How the values were obtained:
T cells = assay: Direct effect of BiP on T cells / PBMC: marker expression; type: cell-based, human
Method: CCR4 and CCR5 expression by T cells.
Immunofluorescent staining was performed as follows when required. Cells were suspended in immunofluorescent buffer (IF) (PBS/0.1% BSA/0.05% azide) washed and incubated for 10 mins on ice with normal human serum. After washing twice in IF buffer, saturating concentrations of fluorescein isothiocyanate (FITC)-, phycoerythrin (PE) or peridium chlorophyll (Per-CP)-conjugated monoclonal antibodies (mAb) recognizing human CD14, CD86, CD80, HLA-DR, CD11c, CD1a, CD83, CD40 and CD85j, (all from Becton Dickinson/PharMingen, Oxford, UK) were added singly or in combination, as stated in the text, to cells for 20 mins on ice. Cells were then washed twice in IF buffer and analysed. Isotype controls, IgG1 and IgG2a (Becton Dickinson, Oxford, UK) were used in parallel.
Another group of regulatory T cells recently described are characterised by the expression of CD8CD122.

allogeneic T cells = assay: Allogeneic proliferative response to early BiP treated DC (tritiated thymidine uptake); type: cell-based, human; settings: DC differentiated with BiP 20 μg/ml
Method: Allogeneic responses by T cells in culture with irradiated (3,000 rads) early DC (eDC), after only 3d in culture with GM-CSF and IL-4 in the presence or absence of BiP (20 μg/ml) at a ratio of 10:1 PBMC:DC (105:10^4 cells/well). The results are shown as an allogeneic proliferative response (A) following addition of neutralizing anti-IL-10 ( 1/100 dilution) antibody and (B) the pre-treatment (2 h) of monocytes (MO) with p38 inhibitor, SB203580 (SB)(10 μM) or the ERK1/2 inhibitor, PD 98059 (PD)(10 μM), prior to the addition of GM-CSF and IL-4 to the cultures. The proliferation of PBMC to early DC following (C) the addition of BiP 24 h post addition of GM-CSF and IL-4. Proliferation was measured by uptake of tritiated thymidine and recorded as counts per minute (cpm). ELISA was used to detect IL-10 (D) in the culture supernatants and (E) by 7d cultured iDC/iDC(BiP) and fully matured mDC/mDC(BiP) differentiated as described in following 7d culture in GM-CSF and IL-4 with LPS (500 ng/ml) added for the final 2d.
(§1) To neutralize IL-10 within the cultures anti-IL-10 antibody (ATCC, Rockville, USA) was added at day 0 (5 μg/ml) to GM-CSF and IL-4 treated cultures in the presence and absence of BiP (20 μg/ml). Two specific cell-permeable inhibitors of the MAPK intracellular signalling pathways were used. SB203580 (SB)(10 μM)((Calbiochem, Darmstadt, Germany) inhibits p38 MAPK, and PD98059 (PD) (10 μM)(Calbiochem), an inhibitor of MAPK extracellular signal regulated kinase (ERK), were tested. MO were pre-treated with the inhibitors for 2 h before adding GM-CSF and IL-4 in the presence or absence of BiP.

IL-10 = IL-10 production by dendritic cell cultures (ELISA); type: cell-based, human; settings: for IL-10 production: n=8
Method: (§2) Supernatant samples were collected on day 1, 3 and 7 for iDC and from the final cultures of the T cells taken from the iDC/mDC-T cell allogeneic test system and set up with autologous cells to determine if there was any regulatory activity. The samples were aliquoted and frozen at −70° C. until required. Production IL-10 was quantified by ELISA using paired antibodies and recombinant standards (PharMingen, Oxford, UK) according to the recommendations of the manufacturer. In addition some were analysed by cytometric bead assay (BD, Oxford, UK) according to the manufacturers instructions.
as §1
as §2, with “of the pro-inflammatory cytokine, TNFα, and the anti-inflammatory cytokine, IL-10,” for “IL-10”

[1] = system: human rheumatoid arthritis synovial membrane (RASM); assay: Human RASM transplanted in SCID mice (RASM/SCID chimeric mouse); type: in vivo, human tissue in SCID mice
Method: Small pieces of human synovial tissue from patients with rheumatoid arthritis were transplanted into SCID mice. […] CD86, HLA-DR, TNFα and IL-6 expression was measured by immunohistology. (B) the weight of explants retrieved from the mice treated as indicated after 12d.
This study used the previously developed SCID-HuRAg murine model (20). Briefly, pannus tissue, consisting of the leading edge of the invading synovial membrane into articular cartilage and bone, was collected as a single mass from RA patients at the time of arthroplastic surgery with full ethical approval. A block of 4-8 mm in diameter was implanted subcutaneously into the back of 6- to 7-week-old male SCID mice (CB.17/Icr; Charles River Japan, Tokyo, Japan), which had been bred under specific pathogen-free conditions. Successful implantation of human RA tissue was assessed visually 4 weeks after implantation, after which therapeutic manipulation of the mice was undertaken. […] The mice were sacrificed 12 days after injection to allow removal of the implanted tissue.
The degree of synovial inflammation of the implanted tissue was assessed as previously described. The histological findings were scored according to two different scoring systems: Koizumi's (40) or Rooney's method (41).
Paraffin embedded tissue sections were used for immunostaining for CD86 and HLA-DR. Frozen tissue sections were stained for the detection of cytokines (TNF, IL-1, IL-6, and IL-10). The tissue sections were blocked for endogenous peroxidase activity with 0.3% hydrogen peroxide in methanol for 15 min. Non-specific antibody binding was blocked with 10% normal goat serum for 1 hr at room temperature. The sections were incubated with specific antibody or normal IgG for 1 hr at 37° C. The sections incubated with anti-CD86 antibody were treated with biotinylated secondary antibody, then visualised using a kit (Vectastatin ABC kit, Vector) with 3-amino-n-ethylcarbazole (Nichirei, Tokyo) as a substrate. The other sections were treated with peroxidase-conjugated anti-mouse IgG (Histofine Simple Stain MAX PO; Nichirei, Tokyo) for 30 min at room temperature and developed with 3-amino-n-ethylcarbazole (Nichirei, Tokyo) for visualization. Sections were counterstained with Mayer haematoxylin for 10 sec and mounted in aqueous permanent mounting solution (Nichirei, Tokyo).
The serum levels of human IL-4, IL-6 and IL-10 were measured by a quantitative sandwich enzyme immunoassay technique (Quantikine HS, R&D systems) according to the manufacturer's instructions.

[2] = 10 μg/mouse single i.v. injection, 12 days
[3] = BiP 10 μg/animal i.v., 12d (FIG. 15A)

Q: For “BiP: 78 kD endoplasmic reticulum chaperone protein as disclosed in WO 00/21995; recombinant human protein”, which “CCR5 expression by T cells” value (T cells; PBMC incubated with BiP for four days (FIG. 4)) is on record?
A: slightly downregulated

Q: And the “CCR4 expression by T cells” value (T cells; PBMC incubated with BiP for four days, three experiments (FIG. 4))?
A: significantly raised

Q: What about the CD8CD122 expression (T cells; T cells after 7 days incubation with BiP, n=3) of the same substance?
A: 75.6%±23.5%

Q: And the “proliferation of allogeneic T cells stimulated by iDC(BiP) or mDC(BiP)” value (allogeneic T cells)?
A: significantly reduced proliferation

Q: What about the “IL-10 production by early DC(BiP) cultures” value (IL-10; 3d GM-CSF and IL-4 with BiP 20 μg/ml, inhibitors 10 μM, anti-IL-10 added at day 0 (FIG. 13D)) of the same substance?
A: significantly more IL-10

Q: And the IL-10 production (IL-10; iDC(BiP), 7d culture)?
A: 819.1 ± 688 pg/mL

Q: And the IL-10 production (IL-10; mDC(BiP), 7d culture with LPS final 2d)?
A: 970.1 ± 684 pg/mL

Q: What about the “IL-10 production by BiP-treated DC” value (IL-10; versus untreated DC (FIG. 1)) of the same substance?
A: significantly more IL-10

Q: What about the “human IL-6 in mouse sera” value ([1]; 10 μg/mouse i.v., 12 days) of the same substance?
A: 0.5 ± 0.2 pg/mL

Q: And the “Koizumi score of synovial inflammation” value [1, 2]?
A: 6.1±2.6

Q: What about the “Rooney score of synovial inflammation” value [1, 2] of the same substance?
A: 16±6

Q: What about the IL-10 in explants ([1]; BiP 10 μg/animal i.v., 12d) of the same substance?
A: no increase in IL-10 was detected

Q: What about the “expression of CD86 and HLA-DR in explant sections (immunohistology)” value [1, 3] of the same substance?
A: Significantly reduced expression of CD86 and HLA-DR

Q: And the “production of human TNFα and IL-6 in explants (immunohistology)” value [1, 3]?
A: decreased production of human TNFα and IL-6

— US20080155704A1, “Methods and Compositions for Determining in vivo Activity of BiP” (King's College London, priority 2006, published 2008)
